# Test results from ChEMBL document CHEMBL3792356, “Discovery of molluscicidal and cercaricidal activities of 3-substituted quinazolinone derivatives by a scaffold hopping approach using a pseudo-ring based on the intramolecular hydrogen bond formation” (Eur J Med Chem, 2016).
# Test system: not listed separately
# Test: Toxicity in tadpole assessed as lethality at 1.25 ppm measured after 48 hrs
# Type: organism-based
# Settings: anura, in vivo
row,Structure (SMILES),"mortality at 48 h, 1.25 ppm"
1,COc1cc(-n2cnc3ccc(Cl)cc3c2=O)cc(OC)c1OC,0%

# Test system: not listed separately
# Test: Toxicity in tadpole assessed as lethality at 2.5 ppm measured after 48 hrs
# Type: organism-based
# Settings: anura, in vivo
row,Structure (SMILES),"mortality at 48 h, 2.5 ppm"
1,COc1cc(-n2cnc3ccc(Cl)cc3c2=O)cc(OC)c1OC,0%

# Test system: not listed separately
# Test: Toxicity in tadpole assessed as lethality at 2.5 ppm measured after 96 hrs
# Type: organism-based
# Settings: anura, in vivo
row,Structure (SMILES),"mortality at 96 h, 2.5 ppm"
1,COc1cc(-n2cnc3ccc(Cl)cc3c2=O)cc(OC)c1OC,0%

# Test system: not listed separately
# Test: Toxicity in tadpole assessed as lethality at 5 ppm measured after 12 hrs
# Type: organism-based
# Settings: anura, in vivo
row,Structure (SMILES),"mortality at 12 h, 5 ppm"
1,COc1cc(-n2cnc3ccc(Cl)cc3c2=O)cc(OC)c1OC,0%

# Test system: not listed separately
# Test: Toxicity in tadpole assessed as lethality at 10 ppm measured after 48 hrs
# Type: organism-based
# Settings: anura, in vivo
row,Structure (SMILES),"mortality at 48 h, 10 ppm"
1,COc1cc(-n2cnc3ccc(Cl)cc3c2=O)cc(OC)c1OC,10%

# Test system: not listed separately
# Test: Toxicity in tadpole assessed as lethality at 5 ppm measured after 48 hrs
# Type: organism-based
# Settings: anura, in vivo
row,Structure (SMILES),"mortality at 48 h, 5 ppm"
1,COc1cc(-n2cnc3ccc(Cl)cc3c2=O)cc(OC)c1OC,0%

# Test system: not listed separately
# Test: Toxicity in tadpole assessed as lethality at 10 ppm measured after 120 hrs
# Type: organism-based
# Settings: anura, in vivo
row,Structure (SMILES),"mortality at 120 h, 10 ppm"
1,COc1cc(-n2cnc3ccc(Cl)cc3c2=O)cc(OC)c1OC,20%

# Test system: not listed separately
# Test: Toxicity in tadpole assessed as lethality at 2.5 ppm measured after 72 hrs
# Type: organism-based
# Settings: anura, in vivo
row,Structure (SMILES),"mortality at 72 h, 2.5 ppm"
1,COc1cc(-n2cnc3ccc(Cl)cc3c2=O)cc(OC)c1OC,0%

# Test system: not listed separately
# Test: Toxicity in tadpole assessed as lethality at 10 ppm measured after 12 hrs
# Type: organism-based
# Settings: anura, in vivo
row,Structure (SMILES),"mortality at 12 h, 10 ppm"
1,COc1cc(-n2cnc3ccc(Cl)cc3c2=O)cc(OC)c1OC,0%

# Test system: Schistosoma japonicum
# Test: Cercaricidal activity against Schistosoma japonicum infected in Oncomelania hupensis measured after 120 mins by colour television microscopy
# Type: functional
# Settings: not given
row,Structure (SMILES),LC90
1,COc1ccc(-n2cnc3ccc(Cl)cc3c2=O)c(OC)c1,1.19 ppm
2,COc1cc(-n2cnc3c(Cl)cc(Cl)cc3c2=O)cc(OC)c1OC,3.28 ppm
3,O=c1c2cc(Cl)ccc2ncn1C1CCCCC1,>50 ppm
4,Cc1ccc(-n2cnc3c(Cl)cc(Cl)cc3c2=O)cc1,1.57 ppm
5,COc1cc(-n2cnc3ccc(Cl)cc3c2=O)cc(OC)c1OC,0.89 ppm

# Same assay, conditions: Schistosoma japonicum, 2 h
row,Structure (SMILES),LC50
1,COc1ccc(-n2cnc3ccc(Cl)cc3c2=O)c(OC)c1,0.91 µg/mL
2,COc1cc(-n2cnc3c(Cl)cc(Cl)cc3c2=O)cc(OC)c1OC,2.49 µg/mL
3,O=c1c2cc(Cl)ccc2ncn1C1CCCCC1,> 50 µg/mL
4,Cc1ccc(-n2cnc3c(Cl)cc(Cl)cc3c2=O)cc1,1.19 µg/mL
5,COc1cc(-n2cnc3ccc(Cl)cc3c2=O)cc(OC)c1OC,0.68 µg/mL

# Test system: not listed separately
# Test: Toxicity in tadpole assessed as lethality at 1.25 ppm measured after 72 hrs
# Type: organism-based
# Settings: anura, in vivo
row,Structure (SMILES),"mortality at 72 h, 1.25 ppm"
1,COc1cc(-n2cnc3ccc(Cl)cc3c2=O)cc(OC)c1OC,0%

# Test system: not listed separately
# Test: Toxicity in tadpole assessed as lethality at 5 ppm measured after 72 hrs
# Type: organism-based
# Settings: anura, in vivo
row,Structure (SMILES),"mortality at 72 h, 5 ppm"
1,COc1cc(-n2cnc3ccc(Cl)cc3c2=O)cc(OC)c1OC,0%

# Test system: Oncomelania hupensis
# Test: Molluscicidal activity against Oncomelania hupensis measured after 24 hrs
# Type: functional
# Settings: not given
row,Structure (SMILES),LC90
1,COc1ccc(-n2cnc3ccc(Cl)cc3c2=O)c(OC)c1,4.97 ppm
2,COc1cc(-n2cnc3c(Cl)cc(Cl)cc3c2=O)cc(OC)c1OC,12.95 ppm
3,O=c1c2cc(Cl)ccc2ncn1C1CCCCC1,>100 ppm
4,Cc1ccc(-n2cnc3c(Cl)cc(Cl)cc3c2=O)cc1,6.21 ppm
5,COc1cc(-n2cnc3ccc(Cl)cc3c2=O)cc(OC)c1OC,3.55 ppm

# Same assay, conditions: Oncomelania hupensis, 24 h
row,Structure (SMILES),LC50
1,COc1ccc(-n2cnc3ccc(Cl)cc3c2=O)c(OC)c1,3.78 µg/mL
2,COc1cc(-n2cnc3c(Cl)cc(Cl)cc3c2=O)cc(OC)c1OC,9.95 µg/mL
3,O=c1c2cc(Cl)ccc2ncn1C1CCCCC1,> 100 µg/mL
4,Cc1ccc(-n2cnc3c(Cl)cc(Cl)cc3c2=O)cc1,4.71 µg/mL
5,COc1cc(-n2cnc3ccc(Cl)cc3c2=O)cc(OC)c1OC,2.69 µg/mL

# Test system: not listed separately
# Test: Toxicity in tadpole assessed as lethality at 0.3125 ppm measured after 48 hrs
# Type: organism-based
# Settings: anura, in vivo
row,Structure (SMILES),"mortality at 48 h, 0.3125 ppm"
1,COc1cc(-n2cnc3ccc(Cl)cc3c2=O)cc(OC)c1OC,0%

# Test system: not listed separately
# Test: Toxicity in tadpole assessed as lethality at 0.3125 ppm measured after 120 hrs
# Type: organism-based
# Settings: anura, in vivo
row,Structure (SMILES),"mortality at 120 h, 0.3125 ppm"
1,COc1cc(-n2cnc3ccc(Cl)cc3c2=O)cc(OC)c1OC,0%

# Test system: not listed separately
# Test: Toxicity in tadpole assessed as lethality at 2.5 ppm measured after 24 hrs
# Type: organism-based
# Settings: anura, in vivo
row,Structure (SMILES),"mortality at 24 h, 2.5 ppm"
1,COc1cc(-n2cnc3ccc(Cl)cc3c2=O)cc(OC)c1OC,0%

# Test system: not listed separately
# Test: Toxicity in tadpole assessed as lethality at 1.25 ppm measured after 120 hrs
# Type: organism-based
# Settings: anura, in vivo
row,Structure (SMILES),"mortality at 120 h, 1.25 ppm"
1,COc1cc(-n2cnc3ccc(Cl)cc3c2=O)cc(OC)c1OC,0%

# Test system: not listed separately
# Test: Toxicity in tadpole assessed as lethality at 5 ppm measured after 24 hrs
# Type: organism-based
# Settings: anura, in vivo
row,Structure (SMILES),"mortality at 24 h, 5 ppm"
1,COc1cc(-n2cnc3ccc(Cl)cc3c2=O)cc(OC)c1OC,0%

# Test system: not listed separately
# Test: Toxicity in tadpole assessed as lethality at 2.5 ppm measured after 120 hrs
# Type: organism-based
# Settings: anura, in vivo
row,Structure (SMILES),"mortality at 120 h, 2.5 ppm"
1,COc1cc(-n2cnc3ccc(Cl)cc3c2=O)cc(OC)c1OC,0%

# Test system: not listed separately
# Test: Toxicity in tadpole assessed as lethality at 2.5 ppm measured after 12 hrs
# Type: organism-based
# Settings: anura, in vivo
row,Structure (SMILES),"mortality at 12 h, 2.5 ppm"
1,COc1cc(-n2cnc3ccc(Cl)cc3c2=O)cc(OC)c1OC,0%

# Test system: not listed separately
# Test: Toxicity in tadpole assessed as lethality at 0.625 ppm measured after 48 hrs
# Type: organism-based
# Settings: anura, in vivo
row,Structure (SMILES),"mortality at 48 h, 0.625 ppm"
1,COc1cc(-n2cnc3ccc(Cl)cc3c2=O)cc(OC)c1OC,0%

# Test system: not listed separately
# Test: Toxicity in tadpole assessed as lethality at 0.625 ppm measured after 96 hrs
# Type: organism-based
# Settings: anura, in vivo
row,Structure (SMILES),"mortality at 96 h, 0.625 ppm"
1,COc1cc(-n2cnc3ccc(Cl)cc3c2=O)cc(OC)c1OC,0%

# Test system: not listed separately
# Test: Toxicity in tadpole assessed as lethality at 1.25 ppm measured after 96 hrs
# Type: organism-based
# Settings: anura, in vivo
row,Structure (SMILES),"mortality at 96 h, 1.25 ppm"
1,COc1cc(-n2cnc3ccc(Cl)cc3c2=O)cc(OC)c1OC,0%

# Test system: not listed separately
# Test: Toxicity in tadpole assessed as lethality at 0.625 ppm measured after 12 hrs
# Type: organism-based
# Settings: anura, in vivo
row,Structure (SMILES),"mortality at 12 h, 0.625 ppm"
1,COc1cc(-n2cnc3ccc(Cl)cc3c2=O)cc(OC)c1OC,0%

# Test system: not listed separately
# Test: Toxicity in tadpole assessed as lethality at 1.25 ppm measured after 24 hrs
# Type: organism-based
# Settings: anura, in vivo
row,Structure (SMILES),"mortality at 24 h, 1.25 ppm"
1,COc1cc(-n2cnc3ccc(Cl)cc3c2=O)cc(OC)c1OC,0%

# Test system: not listed separately
# Test: Toxicity in tadpole assessed as lethality at 0.625 ppm measured after 120 hrs
# Type: organism-based
# Settings: anura, in vivo
row,Structure (SMILES),"mortality at 120 h, 0.625 ppm"
1,COc1cc(-n2cnc3ccc(Cl)cc3c2=O)cc(OC)c1OC,0%

# Test system: not listed separately
# Test: Toxicity in tadpole assessed as lethality at 10 ppm measured after 24 hrs
# Type: organism-based
# Settings: anura, in vivo
row,Structure (SMILES),"mortality at 24 h, 10 ppm"
1,COc1cc(-n2cnc3ccc(Cl)cc3c2=O)cc(OC)c1OC,0%

# Test system: not listed separately
# Test: Toxicity in tadpole assessed as lethality at 0.625 ppm measured after 24 hrs
# Type: organism-based
# Settings: anura, in vivo
row,Structure (SMILES),"mortality at 24 h, 0.625 ppm"
1,COc1cc(-n2cnc3ccc(Cl)cc3c2=O)cc(OC)c1OC,0%

# Test system: not listed separately
# Test: Toxicity in tadpole assessed as lethality at 5 ppm measured after 96 hrs
# Type: organism-based
# Settings: anura, in vivo
row,Structure (SMILES),"mortality at 96 h, 5 ppm"
1,COc1cc(-n2cnc3ccc(Cl)cc3c2=O)cc(OC)c1OC,10%

# Test system: not listed separately
# Test: Toxicity in tadpole assessed as lethality at 5 ppm measured after 120 hrs
# Type: organism-based
# Settings: anura, in vivo
row,Structure (SMILES),"mortality at 120 h, 5 ppm"
1,COc1cc(-n2cnc3ccc(Cl)cc3c2=O)cc(OC)c1OC,10%

# Test system: not listed separately
# Test: Toxicity in tadpole assessed as lethality at 0.3125 ppm measured after 72 hrs
# Type: organism-based
# Settings: anura, in vivo
row,Structure (SMILES),"mortality at 72 h, 0.3125 ppm"
1,COc1cc(-n2cnc3ccc(Cl)cc3c2=O)cc(OC)c1OC,0%

# Test system: not listed separately
# Test: Toxicity in tadpole assessed as lethality at 1.25 ppm measured after 12 hrs
# Type: organism-based
# Settings: anura, in vivo
row,Structure (SMILES),"mortality at 12 h, 1.25 ppm"
1,COc1cc(-n2cnc3ccc(Cl)cc3c2=O)cc(OC)c1OC,0%

# Test system: not listed separately
# Test: Toxicity in tadpole assessed as lethality at 0.625 ppm measured after 72 hrs
# Type: organism-based
# Settings: anura, in vivo
row,Structure (SMILES),"mortality at 72 h, 0.625 ppm"
1,COc1cc(-n2cnc3ccc(Cl)cc3c2=O)cc(OC)c1OC,0%

# Test system: not listed separately
# Test: Toxicity in tadpole assessed as lethality at 10 ppm measured after 96 hrs
# Type: organism-based
# Settings: anura, in vivo
row,Structure (SMILES),"mortality at 96 h, 10 ppm"
1,COc1cc(-n2cnc3ccc(Cl)cc3c2=O)cc(OC)c1OC,20%

# Test system: not listed separately
# Test: Toxicity in tadpole assessed as lethality at 0.3125 ppm measured after 12 hrs
# Type: organism-based
# Settings: anura, in vivo
row,Structure (SMILES),"mortality at 12 h, 0.3125 ppm"
1,COc1cc(-n2cnc3ccc(Cl)cc3c2=O)cc(OC)c1OC,0%

# Test system: not listed separately
# Test: Toxicity in tadpole assessed as lethality at 0.3125 ppm measured after 24 hrs
# Type: organism-based
# Settings: anura, in vivo
row,Structure (SMILES),"mortality at 24 h, 0.3125 ppm"
1,COc1cc(-n2cnc3ccc(Cl)cc3c2=O)cc(OC)c1OC,0%

# Test system: not listed separately
# Test: Toxicity in tadpole assessed as lethality at 10 ppm measured after 72 hrs
# Type: organism-based
# Settings: anura, in vivo
row,Structure (SMILES),"mortality at 72 h, 10 ppm"
1,COc1cc(-n2cnc3ccc(Cl)cc3c2=O)cc(OC)c1OC,10%

# Test system: not listed separately
# Test: Toxicity in tadpole assessed as lethality at 0.3125 ppm measured after 96 hrs
# Type: organism-based
# Settings: anura, in vivo
row,Structure (SMILES),"mortality at 96 h, 0.3125 ppm"
1,COc1cc(-n2cnc3ccc(Cl)cc3c2=O)cc(OC)c1OC,0%
